Results on two molecules are retold here after PMC10054553, “Development of the First ^18F-Labeled Radiohybrid-Based Minigastrin Derivative with High Target Affinity and Tumor Accumulation by Substitution of the Chelating Moiety” (Pharmaceutics, 2023).

A value given as a limit tells only on which side of the number the result lay.

The target in data set [1] is T1, CCK-2R (Rattus norvegicus, UniProt P30553).
T1 construct: CCK-2R-expressing rat pancreatic cancer cells AR42J; host or cells: AR42J (rat pancreatic cancer cells)
T1 sequence (P30553 1-452): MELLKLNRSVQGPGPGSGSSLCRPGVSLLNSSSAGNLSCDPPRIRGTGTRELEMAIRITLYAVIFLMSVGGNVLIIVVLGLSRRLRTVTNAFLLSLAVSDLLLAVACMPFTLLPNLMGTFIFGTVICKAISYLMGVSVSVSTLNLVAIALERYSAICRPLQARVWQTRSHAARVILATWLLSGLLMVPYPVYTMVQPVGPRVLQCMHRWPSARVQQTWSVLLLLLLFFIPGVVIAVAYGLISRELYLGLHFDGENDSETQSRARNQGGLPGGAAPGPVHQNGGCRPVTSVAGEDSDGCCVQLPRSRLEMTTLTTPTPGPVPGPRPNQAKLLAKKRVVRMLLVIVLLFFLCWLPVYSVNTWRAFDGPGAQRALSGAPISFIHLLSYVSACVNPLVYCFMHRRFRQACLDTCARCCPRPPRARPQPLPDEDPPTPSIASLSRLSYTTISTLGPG
Further details: method as in earlier work. As to conditions: natLu-labeled peptide; AR42J cells, [177Lu]Lu-DOTA-PP-F11N 0.3 pmol/well, 3 h, 37 °C, n = 3; identical conditions; cited from earlier work.

Data set [2] is described as follows: Lipophilicity (logD7.4), n-octanol/PBS pH 7.4. In kind it is physicochemical. As to conditions: n-octanol/PBS pH 7.4; read-out: logD7.4. On the procedure:
Cell-based experiments and determination of lipophilicity (logD7.4) were performed as previously published. A detailed description of the in vitro experiments is provided in the Supplementary Materials.
Cell Culture. CCK-2R-expressing rat pancreatic cancer cells AR42J (CLS GmbH, Eppelheim, Germany) were cultivated in monolayers in CELLSTAR® cell culture flasks acquired from Greiner Bio-One GmbH (Frickenhausen, Germany) at 37°C in a humidified atmosphere (5% CO2) using a HERAcell 150i-Incubator (Thermo Fisher Scientific Inc., Waltham, United States). The nutrient medium RPMI 1640 medium, supplemented with 5 mM L-Gln 5 mL non-essential amino acids (100×) and 10% FCS, was used. Furthermore, a Dulbecco’s PBS solution with 0.1% EDTA (v/v) was applied to detach the cells for cell passaging. The detached cells were counted using a Neubauer hemocytometer (Paul Marienfeld, Lauda-Königshofen, Germany). In addition, all operations under sterile conditions were accomplished using a MSC-Advantage safety workbench (Thermo Fisher Scientific Inc., Waltham, United States).
Determination of IC50. AR42J cells (2.0 × 10^5 cells/well) were seeded into 24-well plates 24 ± 2 h prior to testing using 1 mL of nutrient medium (RPMI 1640, 5 mM L-Gln, 5 mL non-essential amino acids (100×), 10% FCS). Cells were incubated at 37°C in a humidified atmosphere (5% CO2).
After the removal of the medium, each well was washed with 500 μL PBS. For the cell-based assay, 200 μL of the nutrient medium (+5% BSA), [ 177Lu]Lu-DOTA-PP-F11N (25 μL, 0.3 pmol) as a radiolabeled reference and 25 μL of the peptide of interest in increasing concentrations (10 −10 to 10−4 M) were added to the cells in triplicate. Thereafter, the assay was incubated for 3 h at 37°C and the supernatant was collected. The cells were washed with 300 μL PBS and the collected supernatant fractions were unified.
After lysis of the cells with NaOH (300 μL, 1 N) for 15 min, the respective wells were washed with NaOH (300 μ L, 1 N) and both fractions were unified. The radioactivity of both the supernatant and the lysed fractions were quantified using a γ-counter (PerkinElmer Inc., Waltham, United States). The obtained data were evaluated via the GraphPad PRISM software (GraphPad Software Inc., La Jolla, United States), which calculates the half-maximal inhibitory concentration (IC50) of the peptides.
Internalization Studies. For the determination of the internalization kinetics of the various peptides, AR42J cells (3.0 × 10^5 cells/well) were seeded into polylysine-coated 24-well plates, adding 1 mL of nutrient medium. Afterwards, the cells were incubated for 24 ± 2 h at 37°C in a humidified atmosphere […]
On the day of the experiment, the medium was removed, and each well was washed with nutrient medium (300 μL). Afterwards 200 μL of nutrient medium, 25 μL of the 177Lu-labeled peptide (0.3 pmol, n = 6) and either 25 μL of nutrient medium for internalization studies ( n = 3) or 25 μL of [natLu]Lu-DOTA-PP-F11N (10 μmol) for competition studies ( n = 3) were added. Thereafter, the assay was incubated for various time points (1, 2, 4 and 6 h) at 37°C in a humidified atmosphere (5% CO2). After incubation, the cells were put on ice for at least 1 min to stop internalization kinetics and the supernatant was collected. Then, the cells were washed with an ice-cold nutrient medium (300 μL) and both fractions were unified. […] The radioactivity of the supernatant, the acid wash and the lysed fractions were quantified using a γ-counter. […]

Data set [3] relates to AR42J tumor-bearing CB17-SCID mice. The settings on record: 24 h p.i., 100 pmol; cited from earlier work.
In data set [4] the target is T1, CCK-2R. On the set-up: method as in earlier work. The settings on record: % of applied activity, 37 °C, AR42J cells, identical conditions, cited from earlier work.

Consider `CCCC[C@H](NC(=O)[C@H](Cc1c[nH]c2ccccc12)NC(=O)CNC(=O)[C@H](Cc1ccc(O)cc1)NC(=O)[C@H](C)NC(=O)CC[C@@H](NC(=O)CC[C@@H](NC(=O)CC[C@@H](NC(=O)CC[C@@H](NC(=O)CC[C@@H](NC(=O)CC[C@@H](NC(=O)CC[C@@H](NC(=O)CC[C@@H](NC(=O)[C@@H](CNC(=O)c1ccc([Si](F)(C(C)(C)C)C(C)(C)C)cc1)NC(=O)CC[C@H](C(=O)O)N1CCN(CC(=O)O)CCN(CC(=O)O)CCN(CC(=O)O)CC1)C(=O)O)C(=O)O)C(=O)O)C(=O)O)C(=O)O)C(=O)O)C(=O)O)C(=O)O)C(=O)N[C@@H](CC(=O)O)C(=O)N[C@@H](Cc1ccccc1)C(N)=O` [(R)-DOTAGA-rhCCK-18], for which the IC50 (in general, the concentration needed to halve the response being measured) on CCK-2R [1] was 20.4 ± 2 nM.
For `CCCC[C@H](NC(=O)[C@H](Cc1c[nH]c2ccccc12)NC(=O)CNC(=O)[C@H](Cc1ccc(O)cc1)NC(=O)[C@H](C)NC(=O)[C@@H](CCC(=O)O)NC(=O)[C@@H](CCC(=O)O)NC(=O)[C@@H](CCC(=O)O)NC(=O)[C@@H](CCC(=O)O)NC(=O)[C@@H](CCC(=O)O)NC(=O)[C@@H](CCC(=O)O)NC(=O)CN1CCN(CC(=O)O)CCN(CC(=O)O)CCN(CC(=O)O)CC1)C(=O)N[C@@H](CC(=O)O)C(=O)N[C@@H](Cc1ccccc1)C(N)=O` [[^177Lu]Lu-DOTA-PP-F11N, metal not drawn], the logD in data set [2] was below -4. In data set [3], the “activity uptake in the tumor” value is 1.9 ± 0.8 %ID/g. Besides, the “Internalization Values (%) 1 h” value at CCK-2R [4] (1 h) was 6.44 ± 0.32%. For the same molecule, on CCK-2R [4] (2 h), the “Internalization Values (%) 2 h” value is 10.1 ± 0.4%. Further, the “Internalization Values (%) 4 h” value on CCK-2R [4] (4 h) is 17.5 ± 1.0%. At CCK-2R [4] (6 h), the “Internalization Values (%) 6 h” value is given as 22.4 ± 0.6%.
